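1) Cells in 96-well plates. 2) Compound, 48 h, 5 concentrations. 3) Linear interpolation between surrounding doses. 4) Unreached endpoint = highest concentration. The concentration for 50% growth inhibition is given as GI50. TGI is the concentration that stops growth completely.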
How the values were obtained:
Test in all cases: NCI anticancer screen, dose series, 48 h
HS 578T breast = system: HS 578T breast
MCF7 breast = system: MCF7 breast
RPMI-8226 leukemia = system: RPMI-8226 leukemia
HOP-62 NSCLC = system: HOP-62 NSCLC
CCRF-CEM leukemia = system: CCRF-CEM leukemia
NCI-H460 lung = system: NCI-H460 lung
HCT-116 colon = system: HCT-116 colon
BT-549 breast = system: BT-549 breast
KM12 colon = system: KM12 colon
NCI-H522 lung = system: NCI-H522 lung
MDA-MB-231 breast = system: MDA-MB-231 breast
ACHN renal = system: ACHN renal
786-0 renal = system: 786-0 renal
HCC-2998 colon = system: HCC-2998 colon
NCI-H23 lung = system: NCI-H23 lung
IGROV1 ovarian = system: IGROV1 ovarian
HL-60(TB) leukemia = system: HL-60(TB) leukemia
SN12C renal = system: SN12C renal
SF-539 CNS = system: SF-539 CNS
MALME-3M melanoma = system: MALME-3M melanoma
HT29 colon = system: HT29 colon
NCI/ADR-RES ovarian = system: NCI/ADR-RES ovarian
T-47D breast = system: T-47D breast
LOX IMVI melanoma = system: LOX IMVI melanoma
SK-OV-3 ovarian = system: SK-OV-3 ovarian
CAKI-1 renal = system: CAKI-1 renal
OVCAR-8 ovarian = system: OVCAR-8 ovarian
UACC-62 melanoma = system: UACC-62 melanoma
SF-295 CNS = system: SF-295 CNS

O=C1/C=C/[C@@H](O)[C@@H]2C[C@@H](O)C[C@H]2/C=C/CCC[C@H](CCc2ccccc2)O1
GI50 (HS 578T breast): < 10 nM | TGI (HS 578T breast): 21700 nM | GI50 (MCF7 breast): 23.4 nM | TGI (MCF7 breast): 55.1 nM | GI50 (RPMI-8226 leukemia): 41.4 nM | TGI (RPMI-8226 leukemia): 5310 nM | GI50 (HOP-62 NSCLC): 37.1 nM | TGI (HOP-62 NSCLC): 20500 nM | GI50 (CCRF-CEM leukemia): 39.1 nM | TGI (CCRF-CEM leukemia): > 59400 nM | GI50 (NCI-H460 lung): 38.9 nM | TGI (NCI-H460 lung): 15700 nM | GI50 (HCT-116 colon): 23.1 nM | TGI (HCT-116 colon): 54.9 nM | GI50 (BT-549 breast): 48.5 nM | TGI (BT-549 breast): 14300 nM | GI50 (KM12 colon): < 10 nM | TGI (KM12 colon): 26.3 nM | GI50 (NCI-H522 lung): 41.2 nM | TGI (NCI-H522 lung): 200 nM | GI50 (MDA-MB-231 breast): 20.4 nM | TGI (MDA-MB-231 breast): 42.7 nM | GI50 (ACHN renal): 37.1 nM | TGI (ACHN renal): > 100000 nM | GI50 (786-0 renal): 12.5 nM | TGI (786-0 renal): 45.3 nM | GI50 (HCC-2998 colon): 29.6 nM | TGI (HCC-2998 colon): 994 nM | GI50 (NCI-H23 lung): 33.4 nM | TGI (NCI-H23 lung): 285 nM | GI50 (IGROV1 ovarian): 40.2 nM | TGI (IGROV1 ovarian): 13200 nM | GI50 (HL-60(TB) leukemia): 30.7 nM | TGI (HL-60(TB) leukemia): 128 nM | GI50 (SN12C renal): 37.3 nM | TGI (SN12C renal): 14100 nM | GI50 (SF-539 CNS): 53.2 nM | TGI (SF-539 CNS): > 66500 nM | GI50 (MALME-3M melanoma): 23.1 nM | TGI (MALME-3M melanoma): 85.4 nM | GI50 (HT29 colon): 31.5 nM | TGI (HT29 colon): 470 nM | GI50 (NCI/ADR-RES ovarian): 28.9 nM | TGI (NCI/ADR-RES ovarian): 823 nM | GI50 (T-47D breast): 48.3 nM | TGI (T-47D breast): 30700 nM | GI50 (LOX IMVI melanoma): 21.1 nM | TGI (LOX IMVI melanoma): 48 nM | GI50 (SK-OV-3 ovarian): 34.3 nM | TGI (SK-OV-3 ovarian): 27000 nM | GI50 (CAKI-1 renal): 36.1 nM | TGI (CAKI-1 renal): 3650 nM | GI50 (OVCAR-8 ovarian): 29.4 nM | TGI (OVCAR-8 ovarian): 12700 nM | GI50 (UACC-62 melanoma): 46.7 nM | TGI (UACC-62 melanoma): 9000 nM | GI50 (SF-295 CNS): 38 nM
